Source: patent US10815230B2, “Casein kinase 1 delta inhibitor” (ELECTROPHORETICS LIMITED, priority 2015, dated 2020)

Assays:
Assay in all cases: KINOMEscan binding assay
Conditions in all cases: read-out: % Ctrl @ 10000 nM
HUNK = HUNK (Homo sapiens, UniProt P57058)
MKNK1 = MKNK1 (Homo sapiens, UniProt Q9BUB5)
PDGFRA = PDGFRA (Homo sapiens, UniProt P16234)
EGFR (G719C) = EGFR (G719C) (Homo sapiens, UniProt P00533, G719C)
MST3 = MST3 (Homo sapiens, UniProt Q9Y6E0)
DAPK3 = DAPK3 (Homo sapiens, UniProt O43293)
TBK1 = TBK1 (Homo sapiens, UniProt Q9UHD2)
LIMK2 = LIMK2 (Homo sapiens, UniProt P53671)
MEK4 = MEK4 (Homo sapiens, UniProt P45985)
MET = MET (Homo sapiens, UniProt P08581)
SRPK2 = SRPK2 (Homo sapiens, UniProt P78362)
SRPK2, sequence (P78362 whole entry): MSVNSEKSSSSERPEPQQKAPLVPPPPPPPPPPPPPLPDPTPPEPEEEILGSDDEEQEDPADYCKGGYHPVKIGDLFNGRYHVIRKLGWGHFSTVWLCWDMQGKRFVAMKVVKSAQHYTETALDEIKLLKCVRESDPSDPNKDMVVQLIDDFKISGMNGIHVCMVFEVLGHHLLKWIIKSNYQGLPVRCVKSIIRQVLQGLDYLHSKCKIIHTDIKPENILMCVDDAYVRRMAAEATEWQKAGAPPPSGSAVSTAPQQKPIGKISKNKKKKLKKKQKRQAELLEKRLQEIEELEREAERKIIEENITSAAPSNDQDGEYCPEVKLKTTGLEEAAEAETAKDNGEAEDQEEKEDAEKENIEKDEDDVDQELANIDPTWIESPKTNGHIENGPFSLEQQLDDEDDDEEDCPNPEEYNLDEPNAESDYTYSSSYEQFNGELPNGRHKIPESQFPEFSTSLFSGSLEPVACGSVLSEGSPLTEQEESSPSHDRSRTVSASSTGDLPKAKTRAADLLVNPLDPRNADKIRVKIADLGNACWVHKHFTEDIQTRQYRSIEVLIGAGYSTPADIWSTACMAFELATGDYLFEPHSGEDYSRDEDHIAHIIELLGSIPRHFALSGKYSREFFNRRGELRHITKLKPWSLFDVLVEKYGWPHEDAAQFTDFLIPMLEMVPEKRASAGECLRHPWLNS

PLK2 = PLK2 (Homo sapiens, UniProt Q9NYY3)
ICK = ICK (Homo sapiens, UniProt Q9UPZ9)
CSNK2A2 = CSNK2A2 (Homo sapiens, UniProt P19784)
CSNK2A2, sequence (P19784 whole entry): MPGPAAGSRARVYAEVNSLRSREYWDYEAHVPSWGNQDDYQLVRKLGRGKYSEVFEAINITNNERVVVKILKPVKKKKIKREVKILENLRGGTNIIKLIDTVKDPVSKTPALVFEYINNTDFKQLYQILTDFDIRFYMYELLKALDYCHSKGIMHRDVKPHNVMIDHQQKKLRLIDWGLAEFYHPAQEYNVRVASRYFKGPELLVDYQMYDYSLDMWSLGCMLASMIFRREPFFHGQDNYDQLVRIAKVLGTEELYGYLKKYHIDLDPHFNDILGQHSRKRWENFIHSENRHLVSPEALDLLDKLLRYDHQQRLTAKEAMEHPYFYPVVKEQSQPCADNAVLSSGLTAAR

NEK1 = NEK1 (Homo sapiens, UniProt Q96PY6)
CSNK1E = CSNK1E (Homo sapiens, UniProt P49674)
MARK3 = MARK3 (Homo sapiens, UniProt P27448)
BMX = BMX (Homo sapiens, UniProt P51813)
SRC = SRC (Homo sapiens, UniProt P12931)
[1] = biological target: RSK3 Kin.Dom.2-C-terminal (Homo sapiens, UniProt Q15349)
RSK3 Kin.Dom.2-C-terminal, sequence (Q15349 415-672 limits assumed): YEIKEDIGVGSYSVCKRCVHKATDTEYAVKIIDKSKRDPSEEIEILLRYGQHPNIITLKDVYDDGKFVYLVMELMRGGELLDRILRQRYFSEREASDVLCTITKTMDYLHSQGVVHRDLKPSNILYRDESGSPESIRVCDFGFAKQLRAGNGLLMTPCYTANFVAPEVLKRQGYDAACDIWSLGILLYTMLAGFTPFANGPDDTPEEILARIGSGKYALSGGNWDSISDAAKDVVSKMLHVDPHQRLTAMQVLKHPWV

[2] = biological target: RPS6KA5 Kin.Dom.1-N-terminal (Homo sapiens, UniProt O75582)
EPHA3 = EPHA3 (Homo sapiens, UniProt P29320)
[3] = biological target: RPS6KA5 Kin.Dom.2-C-terminal (Homo sapiens, UniProt O75582)
RPS6KA5 Kin.Dom.2-C-terminal, sequence (O75582 426-687 limits assumed): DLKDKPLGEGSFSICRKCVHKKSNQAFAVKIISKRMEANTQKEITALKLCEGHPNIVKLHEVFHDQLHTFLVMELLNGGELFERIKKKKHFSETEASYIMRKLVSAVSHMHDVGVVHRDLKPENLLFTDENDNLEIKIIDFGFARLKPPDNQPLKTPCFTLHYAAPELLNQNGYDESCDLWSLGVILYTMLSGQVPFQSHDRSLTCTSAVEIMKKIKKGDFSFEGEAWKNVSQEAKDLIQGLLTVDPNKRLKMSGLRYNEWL

CDK8 = CDK8 (Homo sapiens, UniProt P49336)
IKK-alpha = IKK-alpha (Homo sapiens, UniProt O15111)
IKK-alpha, sequence (O15111 whole entry): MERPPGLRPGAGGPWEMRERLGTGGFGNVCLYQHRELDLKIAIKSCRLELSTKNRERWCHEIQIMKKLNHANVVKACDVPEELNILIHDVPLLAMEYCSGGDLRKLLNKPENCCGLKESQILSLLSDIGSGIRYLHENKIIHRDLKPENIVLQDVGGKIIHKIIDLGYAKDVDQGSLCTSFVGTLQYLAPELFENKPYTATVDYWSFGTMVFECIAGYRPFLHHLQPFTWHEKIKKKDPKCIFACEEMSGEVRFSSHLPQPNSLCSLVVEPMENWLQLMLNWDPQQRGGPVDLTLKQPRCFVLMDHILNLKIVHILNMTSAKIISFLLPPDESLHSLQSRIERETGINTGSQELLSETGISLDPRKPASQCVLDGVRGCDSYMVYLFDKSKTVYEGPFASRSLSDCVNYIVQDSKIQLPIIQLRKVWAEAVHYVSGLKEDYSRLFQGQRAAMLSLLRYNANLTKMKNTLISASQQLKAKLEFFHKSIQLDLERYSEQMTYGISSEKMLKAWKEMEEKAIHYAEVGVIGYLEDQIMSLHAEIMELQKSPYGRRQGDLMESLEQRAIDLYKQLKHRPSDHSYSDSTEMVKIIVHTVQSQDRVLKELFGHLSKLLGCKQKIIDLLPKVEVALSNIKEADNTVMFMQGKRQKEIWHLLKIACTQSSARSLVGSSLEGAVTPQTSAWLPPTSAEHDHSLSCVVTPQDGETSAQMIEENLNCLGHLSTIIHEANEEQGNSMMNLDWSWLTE

GSK3B = GSK3B (Homo sapiens, UniProt P49841)
GSK3B, sequence (P49841 whole entry): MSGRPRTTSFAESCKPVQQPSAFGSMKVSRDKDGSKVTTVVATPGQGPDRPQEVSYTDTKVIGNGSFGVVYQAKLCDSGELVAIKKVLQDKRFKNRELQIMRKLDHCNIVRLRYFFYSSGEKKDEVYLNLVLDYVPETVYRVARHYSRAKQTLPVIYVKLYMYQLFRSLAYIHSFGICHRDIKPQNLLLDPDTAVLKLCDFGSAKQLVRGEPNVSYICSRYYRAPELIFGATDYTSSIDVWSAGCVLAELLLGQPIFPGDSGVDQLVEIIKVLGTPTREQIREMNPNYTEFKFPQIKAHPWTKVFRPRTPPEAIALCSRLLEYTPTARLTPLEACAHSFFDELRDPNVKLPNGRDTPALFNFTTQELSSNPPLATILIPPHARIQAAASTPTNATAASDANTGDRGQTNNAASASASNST

SIK2 = SIK2 (Homo sapiens, UniProt Q9H0K1)
PFPK5 P. falciparum = PFPK5 P. falciparum (Plasmodium falciparum, UniProt P61075)
MERTK = MERTK (Homo sapiens, UniProt Q12866)
IKK-beta = IKK-beta (Homo sapiens, UniProt O14920)
GSK3A = GSK3A (Homo sapiens, UniProt P49840)
EPHB4 = EPHB4 (Homo sapiens, UniProt P54760)
EGFR (G719S) = EGFR (G719S) (Homo sapiens, UniProt P00533, G719S)
EGFR (G719S), sequence (P00533 25-1210 G719S): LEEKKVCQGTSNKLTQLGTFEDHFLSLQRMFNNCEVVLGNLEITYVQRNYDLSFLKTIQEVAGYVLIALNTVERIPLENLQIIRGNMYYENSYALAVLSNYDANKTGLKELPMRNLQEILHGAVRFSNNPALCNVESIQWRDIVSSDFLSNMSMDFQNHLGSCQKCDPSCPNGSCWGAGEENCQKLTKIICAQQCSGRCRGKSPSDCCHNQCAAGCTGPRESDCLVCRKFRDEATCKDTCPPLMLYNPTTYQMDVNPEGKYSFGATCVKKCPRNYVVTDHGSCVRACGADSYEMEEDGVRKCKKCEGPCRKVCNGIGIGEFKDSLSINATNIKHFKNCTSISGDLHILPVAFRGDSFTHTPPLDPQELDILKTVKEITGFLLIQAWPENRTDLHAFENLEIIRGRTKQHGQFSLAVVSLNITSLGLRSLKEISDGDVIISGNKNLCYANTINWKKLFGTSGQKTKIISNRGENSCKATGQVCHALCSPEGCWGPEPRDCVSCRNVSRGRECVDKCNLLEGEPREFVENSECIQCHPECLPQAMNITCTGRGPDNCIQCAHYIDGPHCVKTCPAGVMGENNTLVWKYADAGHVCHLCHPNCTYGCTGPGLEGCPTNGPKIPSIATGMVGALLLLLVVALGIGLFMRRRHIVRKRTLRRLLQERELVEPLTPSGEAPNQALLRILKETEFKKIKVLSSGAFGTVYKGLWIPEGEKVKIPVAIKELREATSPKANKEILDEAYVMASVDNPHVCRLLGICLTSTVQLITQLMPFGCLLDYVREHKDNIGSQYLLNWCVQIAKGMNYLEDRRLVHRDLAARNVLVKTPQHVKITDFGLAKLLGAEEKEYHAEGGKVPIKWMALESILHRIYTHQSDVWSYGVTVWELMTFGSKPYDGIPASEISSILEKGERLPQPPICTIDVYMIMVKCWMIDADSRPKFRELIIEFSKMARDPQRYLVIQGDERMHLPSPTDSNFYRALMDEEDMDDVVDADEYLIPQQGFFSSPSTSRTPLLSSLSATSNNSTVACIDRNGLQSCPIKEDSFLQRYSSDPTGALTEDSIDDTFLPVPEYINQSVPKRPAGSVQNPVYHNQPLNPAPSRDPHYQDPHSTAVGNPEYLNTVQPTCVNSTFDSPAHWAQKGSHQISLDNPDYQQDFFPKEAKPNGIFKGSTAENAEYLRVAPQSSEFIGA

LRRK2 = LRRK2 (Homo sapiens, UniProt Q5S007)
PIK3CB = PIK3CB (Homo sapiens, UniProt P42338)
QSK = QSK (Homo sapiens, UniProt Q9Y2K2)
TSSK1B = TSSK1B (Homo sapiens, UniProt Q9BXA7)
WEE2 = biological target: T1, WEE2 (Homo sapiens, UniProt P0C1S8)
T1 construct: purchased DiscoveRx (KINOMEscan, LeadHunter Discovery services)
T1 sequence (P0C1S8 whole entry): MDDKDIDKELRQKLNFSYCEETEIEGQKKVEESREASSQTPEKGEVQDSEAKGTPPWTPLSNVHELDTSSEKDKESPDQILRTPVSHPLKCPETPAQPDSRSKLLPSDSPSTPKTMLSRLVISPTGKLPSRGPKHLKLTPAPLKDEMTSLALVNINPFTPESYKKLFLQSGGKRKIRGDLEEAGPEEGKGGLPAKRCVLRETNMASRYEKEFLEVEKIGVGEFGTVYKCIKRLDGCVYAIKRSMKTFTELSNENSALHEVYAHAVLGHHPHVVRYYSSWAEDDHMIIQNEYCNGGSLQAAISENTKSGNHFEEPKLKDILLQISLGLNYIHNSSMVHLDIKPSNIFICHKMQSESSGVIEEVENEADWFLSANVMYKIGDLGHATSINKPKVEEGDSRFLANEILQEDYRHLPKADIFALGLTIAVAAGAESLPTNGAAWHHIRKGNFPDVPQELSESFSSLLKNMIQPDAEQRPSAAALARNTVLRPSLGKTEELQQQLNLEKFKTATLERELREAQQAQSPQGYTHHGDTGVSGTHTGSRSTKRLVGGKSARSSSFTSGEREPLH

EGFR (L858R) = EGFR (L858R) (Homo sapiens, UniProt P00533, L858R)
PIK3CA (E545K) = PIK3CA (E545K) (Homo sapiens, UniProt P42336, E545K)
LZK = biological target: T2, LZK (Homo sapiens, UniProt O43283)
T2 construct: T7 phage fusion (most assays) or DNA label after HEK293 expression; purchased DiscoveRx (KINOMEscan, LeadHunter Discovery services); host or cells: T7 phage in E. coli (BL21-derived) or HEK293

MKNK1, sequence (Q9BUB5 whole entry): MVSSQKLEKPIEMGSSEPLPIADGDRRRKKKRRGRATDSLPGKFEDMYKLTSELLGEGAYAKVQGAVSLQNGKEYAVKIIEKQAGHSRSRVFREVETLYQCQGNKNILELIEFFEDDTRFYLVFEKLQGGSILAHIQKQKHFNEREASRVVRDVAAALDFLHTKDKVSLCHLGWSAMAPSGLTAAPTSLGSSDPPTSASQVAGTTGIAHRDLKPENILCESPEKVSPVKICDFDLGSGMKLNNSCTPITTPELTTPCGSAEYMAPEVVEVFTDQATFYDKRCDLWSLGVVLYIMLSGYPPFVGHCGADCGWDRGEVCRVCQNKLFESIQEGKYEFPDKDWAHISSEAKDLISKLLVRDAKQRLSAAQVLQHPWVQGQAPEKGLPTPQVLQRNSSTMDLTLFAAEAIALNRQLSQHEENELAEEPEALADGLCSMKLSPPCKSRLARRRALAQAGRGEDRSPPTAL

For `Nc1ncc(-c2nc3ccccc3o2)c(-c2ccncc2)n1` [Comparative Compound 324, 5-(1,3-benzoxazol-2-yl)-4-(pyridine-4-yl)pyrimidin-2-amine], the remaining binding at 10 µM (HUNK) was 96%, the remaining binding at 10 µM (MKNK1) was 96% and the remaining binding at 10 µM (PDGFRA) was 86%. For the same compound, the remaining binding at 10 µM (EGFR (G719C)) was 64%, the remaining binding at 10 µM (MST3) was 98% and the remaining binding at 10 µM (DAPK3) was 100%. For the same compound, the remaining binding at 10 µM (TBK1) was 85%, the remaining binding at 10 µM (LIMK2) was 100% and the remaining binding at 10 µM (MEK4) was 70%. For the same compound, the remaining binding at 10 µM (MET) was 91%, the remaining binding at 10 µM (SRPK2) was 100% and the remaining binding at 10 µM (PLK2) was 92%. For the same compound, the remaining binding at 10 µM (ICK) was 99%, the remaining binding at 10 µM (CSNK2A2) was 79% and the remaining binding at 10 µM (NEK1) was 100%. It also gave a remaining binding at 10 µM (CSNK1E) of 1.4%, a remaining binding at 10 µM (MARK3) of 100% and a remaining binding at 10 µM (BMX) of 100%. For the same compound, the remaining binding at 10 µM (SRC) was 84%, the remaining binding at 10 µM [1] was 100% and the remaining binding at 10 µM [2] was 95%. It also gave a remaining binding at 10 µM (EPHA3) of 86%, a remaining binding at 10 µM [3] of 96% and a remaining binding at 10 µM (CDK8) of 100%. The remaining binding at 10 µM (IKK-alpha) was 92%, the remaining binding at 10 µM (GSK3B) was 95% and the remaining binding at 10 µM (SIK2) was 100%. It also gave a remaining binding at 10 µM (PFPK5 P. falciparum) of 100%, a remaining binding at 10 µM (MERTK) of 99% and a remaining binding at 10 µM (IKK-beta) of 99%. The remaining binding at 10 µM (GSK3A) was 86%, the remaining binding at 10 µM (EPHB4) was 100% and the remaining binding at 10 µM (EGFR (G719S)) was 63%. For the same compound, the remaining binding at 10 µM (LRRK2) was 83%, the remaining binding at 10 µM (PIK3CB) was 100% and the remaining binding at 10 µM (QSK) was 99%. It also gave a remaining binding at 10 µM (TSSK1B) of 100%, a remaining binding at 10 µM (WEE2) of 100% and a remaining binding at 10 µM (EGFR (L858R)) of 76%. It also gave a remaining binding at 10 µM (PIK3CA (E545K)) of 82% and a remaining binding at 10 µM (LZK) of 89%.

For `CNc1c(C(N)=O)c2ccccn2c1C(=O)c1ccc(F)cc1` [Compound A, 2-methyl-amino-3-[(4-fluorophenyl)carbonyl]indolizine-1-carboxamide], the remaining binding at 10 µM (HUNK) was 79%, the remaining binding at 10 µM (MKNK1) was 100% and the remaining binding at 10 µM (PDGFRA) was 89%. It also gave a remaining binding at 10 µM (EGFR (G719C)) of 32%, a remaining binding at 10 µM (MST3) of 71% and a remaining binding at 10 µM (DAPK3) of 86%. The remaining binding at 10 µM (TBK1) was 74%, the remaining binding at 10 µM (LIMK2) was 100% and the remaining binding at 10 µM (MEK4) was 43%. It also gave a remaining binding at 10 µM (MET) of 100%, a remaining binding at 10 µM (SRPK2) of 100% and a remaining binding at 10 µM (PLK2) of 71%. It also gave a remaining binding at 10 µM (ICK) of 93%, a remaining binding at 10 µM (CSNK2A2) of 93% and a remaining binding at 10 µM (NEK1) of 95%. For the same compound, the remaining binding at 10 µM (CSNK1E) was 0.1%, the remaining binding at 10 µM (MARK3) was 88% and the remaining binding at 10 µM (BMX) was 91%. For the same compound, the remaining binding at 10 µM (SRC) was 40%, the remaining binding at 10 µM [1] was 68% and the remaining binding at 10 µM [2] was 96%. The remaining binding at 10 µM (EPHA3) was 68%, the remaining binding at 10 µM [3] was 88% and the remaining binding at 10 µM (CDK8) was 99%. The remaining binding at 10 µM (IKK-alpha) was 96%, the remaining binding at 10 µM (GSK3B) was 86% and the remaining binding at 10 µM (SIK2) was 59%. The remaining binding at 10 µM (PFPK5 P. falciparum) was 100%, the remaining binding at 10 µM (MERTK) was 55% and the remaining binding at 10 µM (IKK-beta) was 90%. For the same compound, the remaining binding at 10 µM (GSK3A) was 56%, the remaining binding at 10 µM (EPHB4) was 54% and the remaining binding at 10 µM (EGFR (G719S)) was 24%. It also gave a remaining binding at 10 µM (LRRK2) of 82%, a remaining binding at 10 µM (PIK3CB) of 100% and a remaining binding at 10 µM (QSK) of 82%. For the same compound, the remaining binding at 10 µM (TSSK1B) was 100%, the remaining binding at 10 µM (WEE2) was 100% and the remaining binding at 10 µM (EGFR (L858R)) was 25%. For the same compound, the remaining binding at 10 µM (PIK3CA (E545K)) was 77% and the remaining binding at 10 µM (LZK) was 100%.
